Measurements published in ChEMBL document CHEMBL1201862, “PubChem BioAssay data set” (2004).
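Interpolation was linear, between the two tested concentrations surrounding the appropriate level; five concentrations were tested over 48 hours in 96-well plates. GI50: concentration for 50% inhibition of growth.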 Activity calls are given as the source filed them. No stated cut-off is given here; in the data, active = GI50 up to about 1.1 µM and inactive = higher.

Legend:
Experiment in all cases: NCI anticancer screen, dose series, 48 h
[1] = test system: TK-10
[2] = test system: NCI-H522
[3] = test system: UACC-257
[4] = test system: LOX IMVI
[5] = test system: 786-0
[6] = test system: RPMI-8226
[7] = test system: SK-MEL-5
[8] = test system: UACC-62
[9] = test system: SF-268
[10] = test system: CCRF-CEM
[11] = test system: MCF7
[12] = test system: SF-295
[13] = test system: SK-MEL-28
[14] = test system: Malme-3M
[15] = test system: EKVX
[16] = test system: HOP-62
[17] = test system: KM12
[18] = test system: SNB-19
[19] = test system: A549
[20] = test system: T47D

| Structure (SMILES) | GI50 [1] | GI50 [2] | GI50 [3] | GI50 [4] | GI50 [5] | GI50 [6] | GI50 [7] | GI50 [8] | GI50 [9] | GI50 [10] | GI50 [11] | GI50 [12] | GI50 [13] | GI50 [14] | GI50 [15] | GI50 [16] | GI50 [17] | GI50 [18] | GI50 [19] | GI50 [20] |
| --- | --- | --- | --- | --- | --- | --- | --- | --- | --- | --- | --- | --- | --- | --- | --- | --- | --- | --- | --- | --- |
| CCN(CC)C(=S)N/N=C1\C(=O)Nc2ccccc21 | 0.348 µM (active) | 3.03 µM (inactive) | 1.64 µM (inactive) | 0.495 µM (active) | 0.432 µM (active) | 0.355 µM (active) | 0.193 µM (active) | 1.31 µM (inactive) | > 100 µM (inactive) | 0.347 µM (active) | 0.397 µM (active) | 0.45 µM (active) | > 100 µM (inactive) | 0.298 µM (active) | 1.36 µM (inactive) | 0.431 µM (active) | 0.451 µM (active) | 1.69 µM (inactive) | 0.638 µM (active) | – |
| C[C@]12CC(c3ccccc3O1)C(C(=O)NC13CC4CC(CC(C4)C1)C3)C(=O)N2 (some centres undefined) | 70.1 µM (inactive) | 39 µM (inactive) | 35.7 µM (inactive) | 23.4 µM (inactive) | 18.3 µM (inactive) | 16 µM (inactive) | 17.9 µM (inactive) | 46.8 µM (inactive) | 32.1 µM (inactive) | 20 µM (inactive) | 39.5 µM (inactive) | 44.8 µM (inactive) | 28.3 µM (inactive) | 33 µM (inactive) | 0.249 µM (active) | 44.3 µM (inactive) | 35.5 µM (inactive) | 23.4 µM (inactive) | 21.1 µM (inactive) | – |
| CC(=O)Nc1cc(Cl)cc(Cl)c1O | > 100 µM (inactive) | > 100 µM (inactive) | > 100 µM (inactive) | – | > 100 µM (inactive) | > 100 µM (inactive) | > 100 µM (inactive) | > 100 µM (inactive) | > 100 µM (inactive) | > 100 µM (inactive) | > 100 µM (inactive) | > 100 µM (inactive) | > 100 µM (inactive) | > 100 µM (inactive) | > 100 µM (inactive) | > 100 µM (inactive) | > 100 µM (inactive) | > 100 µM (inactive) | > 100 µM (inactive) | > 100 µM (inactive) |
| NC1Cc2ccccc2OC1=O (centres undefined) | > 100 µM (inactive) | > 100 µM (inactive) | > 100 µM (inactive) | – | > 100 µM (inactive) | > 100 µM (inactive) | > 100 µM (inactive) | > 100 µM (inactive) | > 100 µM (inactive) | – | > 100 µM (inactive) | > 100 µM (inactive) | > 100 µM (inactive) | > 100 µM (inactive) | > 100 µM (inactive) | > 100 µM (inactive) | > 100 µM (inactive) | > 100 µM (inactive) | > 100 µM (inactive) | > 100 µM (inactive) |
| CC(C)[Si]1(C(C)C)OCC2OC3(CO)C(Oc4nc(=O)ccn43)C2O[Si](C(C)C)(C(C)C)O1 (centres undefined) | 16.6 µM (inactive) | – | 14.7 µM (inactive) | 15 µM (inactive) | 14.6 µM (inactive) | 5.81 µM (inactive) | 13.5 µM (inactive) | 12.8 µM (inactive) | 17 µM (inactive) | 5.14 µM (inactive) | 5.9 µM (inactive) | 15 µM (inactive) | 15 µM (inactive) | – | 17.1 µM (inactive) | 15 µM (inactive) | 13.3 µM (inactive) | 15.9 µM (inactive) | – | 9.59 µM (inactive) |
| COP(=O)(OC)C12CCOCCN1c1ccccc1C2=O (centres undefined) | > 100 µM (inactive) | > 100 µM (inactive) | > 100 µM (inactive) | – | > 100 µM (inactive) | > 100 µM (inactive) | > 100 µM (inactive) | > 100 µM (inactive) | > 100 µM (inactive) | > 100 µM (inactive) | > 100 µM (inactive) | > 100 µM (inactive) | > 100 µM (inactive) | > 100 µM (inactive) | > 100 µM (inactive) | > 100 µM (inactive) | > 100 µM (inactive) | > 100 µM (inactive) | > 100 µM (inactive) | > 100 µM (inactive) |
| COc1c(F)c(F)c(C(=O)/C=C2\Nc3ccccc3NC2=O)c(F)c1F | > 10 µM (inactive) | – | > 10 µM (inactive) | 2.89 µM (inactive) | 2.32 µM (inactive) | > 10 µM (inactive) | 8.95 µM (inactive) | > 10 µM (inactive) | 9.1 µM (inactive) | > 10 µM (inactive) | > 10 µM (inactive) | 5.52 µM (inactive) | 6.81 µM (inactive) | > 10 µM (inactive) | > 10 µM (inactive) | 4.41 µM (inactive) | 8.22 µM (inactive) | – | 9.16 µM (inactive) | 4.67 µM (inactive) |
